# What was measured:
# soybean = assay: Greenhouse soybean pot trial with magnesium lactate; format: in vivo
# Protocol: Materials and Methods: One soybean seed was planted in each of the 60 individually marked pots using six different treatments in a randomized complete block design. Plants were grown in the greenhouse under controlled and ideal conditions. All pots were handled and cared for the same exact way throughout their entire growing season. Several measurements were recorded during this trial starting with emergence hours, the number of plants emerged, and unifoliate, 1st trifoliate, 3rd trifoliate, 5th trifoliate, and 7th trifoliate leaf area readings. […] of the measurements that were recorded when this trial was harvested are the number of pods, weight of pods, total soybean seed weight per treatment, and average soybean seed weight per pot.
# The magnesium lactate improved the efficiency with which the plant builds chlorophyll when it was applied foliar in sparingly small quantities to soybean plants early in their growth stage.
# corn = assay: Greenhouse corn pot trial with magnesium lactate; format: in vivo
# Protocol: The corn trial that was conducted using MgL had one corn seed planted in each of the 60 individually marked pots using six different treatments in a randomized complete block design. Plants were grown in the greenhouse under controlled and ideal conditions. All pots were handled and cared for the same exact way throughout their entire growing season. During this trial the emergence hours, the number of plants emerged, and plant height measurements were taken at specific plant stages and recorded. Several measurements were documented when the trial was harvested which were V10 plant height, V10 chlorophyll readings, stalk diameter, and biomass.
smiles,measurement,setting,value
"CC(O)C(=O)[O-].CC(O)C(=O)[O-].[Mg+2] (stereo not drawn) [MgL, magnesium lactate]",efficiency with which the plant builds chlorophyll,soybean; applied foliar in sparingly small quantities to soybean plants early in their growth stage,improved
same,soybean yield (average soybean seed weight per pot),"soybean; greenhouse pots, FIG. 8",positive impact
same,"overall performance in comparison to conventional magnesium compounds, such magnesium sulfate (MgSO)",soybean; soybean trial,performed better overall
same,"overall performance in comparison to conventional magnesium compounds, such magnesium sulfate (MgSO)",corn; corn trial,performed better overall
same,corn biomass,"corn; greenhouse pots, FIG. 14",positive impact
same,growth and development of corn,"corn; greenhouse pots, FIGS. 10-14",positive impact
